Assay results from patent US20040265341A1, “Prevention of uveitis” (Kings College London, priority 2003, published 2004).
Like-named read-outs stand apart in the source and are kept apart here.

Columns and labels:
[1] = test system: uveitis; conditions: cited from earlier work
[2] = test system: PBMC; type: cell-based, human; conditions: for concentration of IFN-γ: relapsed group
[3] = test system: PBMC; type: cell-based, human
[4] = test system: uveitis; experiment: Prevention of experimental uveitis by oral administration in the rat uveitis model; type: in vivo; conditions: oral administration to experimental animals; conjugate vs peptide alone p<0.0001
[5] = before tolerising regime, 3 patients with relapsing uveitis

## QPHDLGKVGEVIVTKD [p336-351]
[1]; Lewis rats, subcutaneously with an adjuvant, Uchio et al 1998
  induction of uveitis: uveitis can be induced
[1]; oral or nasal administration, Hu et al 1998
  induction of uveitis or tolerance: induced uveitis instead of tolerance
[1]; rats, Stanford et al 1994
  uveitogenicity when administered to rats: most effective
[2]; patients in whom uveitis was prevented, before and 3 months after immunosuppressive drugs withdrawn
  production of IFN-γ: negligible
[2]; protected patients
  TNF-α concentrations: negligible
[2]; 1-2 months after tolerisation initiated, unstimulated 1665±1111 pg/ml
  concentration of IFN-γ: 4723 (±2639) pg/ml
[2]; before tolerisation, unstimulated 504±411 pg/ml
  concentration of IFN-γ: 758 ± 636 pg/mL
[2]; relapsing patients, mostly 1-2 months after tolerisation
  TNF-α concentrations: increased levels
[3]; [5]
  stimulation index (SI), individual patients: > 2
  stimulation index (SI), mean±sem: 4.1±0.8
[3]; before tolerising regime, 5 patients in whom uveitis was prevented
  stimulation index (SI), mean±sem: 1.25±0.1
[3]; prevented group, 3 months after tolerising regime started, immunosuppressive drugs tailed off
  stimulation index (SI), mean: 2.3±0.6
[3]; relapsing group, 1-2 months after tolerising regime initiated, immunosuppressive doses decreased
  stimulation index (SI), mean: 23.2 (±14.8)
[4]
  development of uveitis: 65.8%
  development of uveitis (animals with uveitis / total): 48/73
